The source of these data is patent publication US11053218B2, “3-(1-oxoisoindolin-2-yl)piperidine-2,6-dione derivatives and uses thereof” (Novartis AG, priority 2017, dated 2021).

Counter-ions that a name gives are not always drawn. Like-named read-outs stand apart in the source and are kept apart here.

One test concerns the target IKZF1 (Homo sapiens, UniProt Q13422+Q96SW2). Put plainly: Prolabel quantification of IKZF1 protein levels in 293GT cells. The class given is cell-based. The following applies: Prolabel assay, read-out: IKZF1 EC50. Here is the method:
(§1) The Prolabel system from DiscoverX was used to develop high-throughput and quantitative assays to measure changes in IKZF1, IKZF2 and GSPT1 protein levels in response to compounds. The prolabel tag was derived from the alpha fragment of beta galactosidase and has the following protein sequence: mssnslavvlqrrdwenpgvtqlnrlaahppfaswrnseeartdrpsqqlrslnge. The complementary fragment of beta-galactosidase (from DiscoverX), is added to the prolabel tag to form an active beta galactosidase enzyme whose activity can be precisely measured. In this way, the levels of a fusion protein with the prolabel tag can be quantified in cell lysates.
(§2) Lentiviral vectors, based on the Invitrogen pLenti6.2/V5 DEST backbone, were constructed that placed the prolabel tag upstream of IKZF1, IKZF2 or GSPT1 and expressed the fusion protein from a CMV promoter.
(§3) To ensure moderate and consistent expression of the prolabel fusion proteins across all cells in the population, stable cell lines were constructed from cells expressing a single copy of the construct. Lentivirus packaged with the constructs was made using the Virapower kit from Invitrogen.
(§4) The levels of prolabel tagged fusion proteins in compound treated cell lines were measured as follows:
(§5) Day 1, Cells were diluted to 1.0×10^6 cells/ml in normal growth medium. 17.5 μL of cells were plated in each well of a solid white 384 well plate. Plates were incubated overnight in a 37° C. tissue culture incubator.
(§6) Day 2, Serial dilutions of compounds were made in 384 well plates from 10 mM stocks. 15 μL of DMSO was added to each well of a 384 well plate. In the first column 15 μL of stock compound was added. The solution was mixed and 15 μL was transferred to the next column. This was repeated until 20 two-fold dilutions were prepared. 2.5 μL of diluted compounds were transferred into 60 μL of cell culture medium in another 384 well plate, and mixed well. 2.5 μL of this mixture was added to the plated cells. The final DMSO concentration was 0.5% and the highest concentration of compound was 50 μM. Plates were incubated overnight (e.g., about 14 h, 18 h, or 24 h) in a 37° C. tissue culture incubator.
(§7) Day 3, Plates were removed from the incubator and allowed to equilibrate at rt for 30 minutes. Prolabel substrate (DiscoverX PathHunter Prolabel Detection Kit, User manual: 93-0180) was added as described by the manufacturers protocols. Plates were incubated at rt for three hours and luminescence was read using an Envision reader (Perkin Elmer) Data was analyzed and visualized using the Spotfire software package.

Another test deals with IKZF2 (Homo sapiens, UniProt Q96SW2+Q9UKS7). Put plainly: Prolabel quantification of IKZF2 protein levels in 293GT cells. In kind it is cell-based. The following applies: for inhibition at 10 µM: read-out: IKZF2 % protein reduction at 10 μM, 24 h; for DC50: Prolabel assay, read-out: IKZF2 EC50. Here is the method:
as §1, §2, §3, §4, §5, §6, §7

Sequence of IKZF1 (Q13422 whole entry, the tested form may be a part): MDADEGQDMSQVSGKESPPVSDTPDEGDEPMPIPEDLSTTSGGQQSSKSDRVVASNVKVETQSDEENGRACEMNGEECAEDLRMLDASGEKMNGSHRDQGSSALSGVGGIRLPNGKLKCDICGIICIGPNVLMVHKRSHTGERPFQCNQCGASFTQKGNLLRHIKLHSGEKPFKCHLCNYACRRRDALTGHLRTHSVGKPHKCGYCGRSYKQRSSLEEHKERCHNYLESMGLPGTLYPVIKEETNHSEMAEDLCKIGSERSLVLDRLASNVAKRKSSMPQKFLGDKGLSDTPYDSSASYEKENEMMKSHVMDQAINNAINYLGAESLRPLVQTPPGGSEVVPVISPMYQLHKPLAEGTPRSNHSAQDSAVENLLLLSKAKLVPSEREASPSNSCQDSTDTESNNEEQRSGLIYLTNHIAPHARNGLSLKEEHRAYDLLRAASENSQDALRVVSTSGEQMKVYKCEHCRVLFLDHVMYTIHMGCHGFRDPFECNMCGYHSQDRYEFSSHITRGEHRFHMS
Sequence of IKZF1 (Q96SW2 whole entry, the tested form may be a part): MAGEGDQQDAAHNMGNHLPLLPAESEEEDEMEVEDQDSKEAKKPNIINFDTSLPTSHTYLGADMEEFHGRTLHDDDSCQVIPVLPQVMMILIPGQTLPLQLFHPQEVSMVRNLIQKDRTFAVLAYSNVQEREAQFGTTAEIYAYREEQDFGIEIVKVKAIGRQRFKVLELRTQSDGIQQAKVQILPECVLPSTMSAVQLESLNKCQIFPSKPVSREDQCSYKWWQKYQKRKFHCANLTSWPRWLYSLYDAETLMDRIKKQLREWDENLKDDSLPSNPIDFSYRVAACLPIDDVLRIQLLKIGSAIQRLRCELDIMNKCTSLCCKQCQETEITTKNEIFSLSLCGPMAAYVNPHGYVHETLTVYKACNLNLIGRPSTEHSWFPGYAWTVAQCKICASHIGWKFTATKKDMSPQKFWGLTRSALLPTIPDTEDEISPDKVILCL
Sequence of IKZF1 (Q16531 whole entry partner, the tested form may be a part): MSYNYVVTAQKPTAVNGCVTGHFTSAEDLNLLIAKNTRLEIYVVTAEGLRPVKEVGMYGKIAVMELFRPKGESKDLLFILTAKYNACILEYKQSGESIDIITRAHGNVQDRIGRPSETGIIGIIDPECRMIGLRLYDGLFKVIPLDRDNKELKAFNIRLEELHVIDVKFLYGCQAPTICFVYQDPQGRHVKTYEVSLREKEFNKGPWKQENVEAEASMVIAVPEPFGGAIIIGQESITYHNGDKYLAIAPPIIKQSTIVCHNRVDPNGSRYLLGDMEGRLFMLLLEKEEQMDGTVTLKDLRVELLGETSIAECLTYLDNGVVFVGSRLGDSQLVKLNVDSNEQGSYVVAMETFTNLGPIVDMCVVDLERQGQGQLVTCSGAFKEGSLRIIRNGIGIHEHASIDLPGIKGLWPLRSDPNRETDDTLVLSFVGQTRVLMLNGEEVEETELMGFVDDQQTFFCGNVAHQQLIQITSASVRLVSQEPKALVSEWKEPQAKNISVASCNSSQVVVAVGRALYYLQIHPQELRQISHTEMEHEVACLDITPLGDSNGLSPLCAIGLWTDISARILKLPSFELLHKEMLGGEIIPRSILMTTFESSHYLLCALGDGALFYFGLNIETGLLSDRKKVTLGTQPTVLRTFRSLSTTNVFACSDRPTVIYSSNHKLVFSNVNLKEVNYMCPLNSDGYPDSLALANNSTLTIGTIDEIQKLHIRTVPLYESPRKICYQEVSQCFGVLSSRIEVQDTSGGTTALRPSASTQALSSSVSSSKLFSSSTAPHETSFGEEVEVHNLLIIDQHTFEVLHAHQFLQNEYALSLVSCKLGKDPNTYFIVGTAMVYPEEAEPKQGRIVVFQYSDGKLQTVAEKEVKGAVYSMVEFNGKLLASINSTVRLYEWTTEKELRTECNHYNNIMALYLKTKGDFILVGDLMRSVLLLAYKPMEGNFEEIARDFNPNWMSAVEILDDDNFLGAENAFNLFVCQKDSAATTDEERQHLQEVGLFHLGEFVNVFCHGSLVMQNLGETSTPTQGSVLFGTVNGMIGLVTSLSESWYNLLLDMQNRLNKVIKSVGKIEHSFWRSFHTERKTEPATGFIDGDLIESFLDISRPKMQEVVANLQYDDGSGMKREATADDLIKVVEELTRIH
Sequence of IKZF2 (Q9UKS7 whole entry): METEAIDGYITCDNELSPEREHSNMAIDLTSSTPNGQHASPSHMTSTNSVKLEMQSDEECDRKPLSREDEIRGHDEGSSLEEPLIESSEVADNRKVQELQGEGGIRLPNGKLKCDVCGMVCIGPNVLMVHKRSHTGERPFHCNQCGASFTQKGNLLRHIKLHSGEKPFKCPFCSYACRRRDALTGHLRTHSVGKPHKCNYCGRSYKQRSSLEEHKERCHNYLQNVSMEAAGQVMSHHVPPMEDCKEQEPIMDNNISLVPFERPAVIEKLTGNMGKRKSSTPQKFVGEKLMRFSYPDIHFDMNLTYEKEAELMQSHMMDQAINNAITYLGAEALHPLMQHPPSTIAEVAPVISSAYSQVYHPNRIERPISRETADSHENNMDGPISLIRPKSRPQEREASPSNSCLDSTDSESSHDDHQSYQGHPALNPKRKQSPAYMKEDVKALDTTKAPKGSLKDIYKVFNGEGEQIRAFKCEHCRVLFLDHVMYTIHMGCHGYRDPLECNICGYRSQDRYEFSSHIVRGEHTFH
Sequence of IKZF2 (Q96SW2 whole entry): as the sequence (Q96SW2 whole entry, the tested form may be a part) above
Sequence of IKZF2 (Q16531 whole entry partner): as the sequence (Q16531 whole entry partner, the tested form may be a part) above

Take `Cc1ccc2nc(CN3CCC(c4ccc5c(c4)CN(C4CCC(=O)NC4=O)C5=O)CC3)cc(=O)n2c1` (stereo not shown) [Compound I-221, 3-(5-(1-((7-methyl-4-oxo-4H-pyrido[1,2-a]pyrimidin-2-yl)methyl)piperidin-4-yl)-1-oxoisoindolin-2-yl)piperidine-2,6-dione]: the DC50 at IKZF1 is more than 50000 nM; at IKZF2 (293GT cells), 36 nM. Also, at IKZF2 (24 h, 10 μM, 24 h, 293GT cells), the inhibition at 10 µM was determined as 30%.

For `CC(C)(C)c1ccc(CN2CCC(c3ccc4c(c3)CN(C3CCC(=O)NC3=O)C4=O)CC2)cc1` (stereo not shown) [Compound I-84, 3-(5-(1-(4-(tert-butyl)benzyl)piperidin-4-yl)-1-oxoisoindolin-2-yl)piperidine-2,6-dione], the DC50 at IKZF1 was more than 30000 nM; at IKZF2 (293GT cells) it was 15 nM. Moreover, on IKZF2 (10 μM, 24 h, 293GT cells), the inhibition at 10 µM was 60%.

With `CCCc1ccc(CN2CCC(c3ccc4c(c3)CN(C3CCC(=O)NC3=O)C4=O)CC2)cc1` (stereo not shown) [Compound I-75, 3-(1-oxo-5-(1-(4-propylbenzyl)piperidin-4-yl)isoindolin-2-yl)piperidine-2,6-dione], the DC50 on IKZF1 was more than 30000 nM; at IKZF2 (293GT cells), 20 nM. The inhibition at 10 µM on IKZF2 (24 h, 10 μM, 24 h, 293GT cells) is 80%.

`O=C1CCC(N2Cc3cc(C4=CCN(Cc5ccccc5)C4)ccc3C2=O)C(=O)N1` (stereo not shown) [Compound I-191, 3-(5-(1-benzyl-2,5-dihydro-1H-pyrrol-3-yl)-1-oxoisoindolin-2-yl)piperidine-2,6-dione]: the values for the DC50 at IKZF1 and on IKZF2 (293GT cells) were more than 30000 nM and 4200 nM, respectively. The inhibition at 10 µM on IKZF2 (24 h, 10 μM, 24 h, 293GT cells) is 10%.

As for `O=C1CCC(N2Cc3cc(C4CCN(Cc5ccc6[nH]c(=O)[nH]c6c5)CC4)ccc3C2=O)C(=O)N1` (stereo not shown) [Compound I-259, 3-(1-oxo-5-(1-((2-oxo-2,3-dihydro-1H-benzo[d]imidazol-5-yl)methyl)piperidin-4-yl)isoindolin-2-yl)piperidine-2,6-dione], the DC50 on IKZF1 was more than 30000 nM; at IKZF2 (293GT cells), 1300 nM. Besides, at IKZF2 (24 h, 10 μM, 24 h, 293GT cells), the inhibition at 10 µM came to 60%.

Turning to `O=C1CCC(N2Cc3cc(C4CCN(Cc5cnc[nH]5)CC4)ccc3C2=O)C(=O)N1` (stereo not shown) [Compound I-120, 3-(5-(1-((1H-imidazol-5-yl)methyl)piperidin-4-yl)-1-oxoisoindolin-2-yl)piperidine-2,6-dione], the DC50 on IKZF1 is more than 30000 nM; on IKZF2 (293GT cells), 830 nM. The inhibition at 10 µM at IKZF2 (24 h, 10 μM, 24 h, 293GT cells) was determined as 50%.

As to `O=C1CCC(N2Cc3cc(C4CCN(Cc5nc6ccccc6s5)CC4)ccc3C2=O)C(=O)N1` (stereo not shown) [Compound I-200, 3-(5-(1-(benzo[d]thiazol-2-ylmethyl)piperidin-4-yl)-1-oxoisoindolin-2-yl)piperidine-2,6-dione], the DC50 is more than 30000 nM on IKZF1 and 67 nM at IKZF2 (293GT cells). For the same compound, the inhibition at 10 µM on IKZF2 (24 h, 10 μM, 24 h, 293GT cells) worked out at 35%.

As for `O=C1CCC(N2Cc3cc(C4CCN(Cc5c(F)cccc5F)CC4)ccc3C2=O)C(=O)N1` (stereo not shown) [Compound I-24, 3-(5-(1-(2,6-difluorobenzyl)piperidin-4-yl)-1-oxoisoindolin-2-yl)piperidine-2,6-dione], the results for the DC50 on IKZF1 and on IKZF2 (293GT cells) were more than 30000 nM and 39 nM, respectively. At IKZF2 (24 h, 10 μM, 24 h, 293GT cells), the inhibition at 10 µM stood at 60%.

Regarding `CCc1ccc(CN2CCC(c3ccc4c(c3)CN(C3CCC(=O)NC3=O)C4=O)CC2)cc1` (stereo not shown) [Compound I-66, 3-(5-(1-(4-ethylbenzyl)piperidin-4-yl)-1-oxoisoindolin-2-yl)piperidine-2,6-dione], the DC50 at IKZF1 was more than 30000 nM; at IKZF2 (293GT cells), 9 nM. Besides, the inhibition at 10 µM at IKZF2 (24 h, 10 μM, 24 h, 293GT cells) came to 70%.

Consider `O=C1CCC(N2Cc3cc(C4CCN(Cc5ccc(CF)cc5)CC4)ccc3C2=O)C(=O)N1` (stereo not shown) [Compound I-63, 3-(5-(1-(4-(fluoromethyl)benzyl)piperidin-4-yl)-1-oxoisoindolin-2-yl)piperidine-2,6-dione], for which the DC50 on IKZF1 is more than 30000 nM; on IKZF2 (293GT cells), 11 nM. At IKZF2 (24 h, 10 μM, 24 h, 293GT cells), the inhibition at 10 µM is 75%.

For `Cc1ccc(CN2CCC(c3ccc4c(c3)CN(C3CCC(=O)NC3=O)C4=O)CC2)cc1F` (stereo not shown) [Compound I-69, 3-(5-(1-(3-fluoro-4-methylbenzyl)piperidin-4-yl)-1-oxoisoindolin-2-yl)piperidine-2,6-dione], the DC50 at IKZF1 is more than 30000 nM; on IKZF2 (293GT cells), 15 nM. Also, on IKZF2 (24 h, 10 μM, 24 h, 293GT cells), the inhibition at 10 µM was determined as 80%. Besides, the “IKZF2 protein levels as compared to the control (DMSO)” value at IKZF2 (Prolabel assay in HEK293GT cells, bar graph) was “decreased”.

As to `O=C1CCC(N2Cc3cc(C4CCN(Cc5cc(C6CC6)[nH]n5)CC4)ccc3C2=O)C(=O)N1` (stereo not shown) [Compound I-146, 3-(5-(1-((5-cyclopropyl-1H-pyrazol-3-yl)methyl)piperidin-4-yl)-1-oxoisoindolin-2-yl)piperidine-2,6-dione], the figures for the DC50 on IKZF1 and at IKZF2 (293GT cells) were more than 30000 nM and 170 nM, respectively. Also, the inhibition at 10 µM at IKZF2 (24 h, 10 μM, 24 h, 293GT cells) is 60%.

As for `Nc1nc(C(F)(F)F)c(CN2CCC(c3ccc4c(c3)CN(C3CCC(=O)NC3=O)C4=O)CC2)s1` (stereo not shown) [Compound I-234, 3-(5-(1-((2-amino-4-(trifluoromethyl)thiazol-5-yl)methyl)piperidin-4-yl)-1-oxoisoindolin-2-yl)piperidine-2,6-dione], the values for the DC50 at IKZF1 and on IKZF2 (293GT cells) were more than 30000 nM and 120 nM, respectively. In addition, the inhibition at 10 µM on IKZF2 (24 h, 10 μM, 24 h, 293GT cells) came to 50%.

`O=C1CCC(N2Cc3cc(C4CCCN(Cc5ccccc5)CC4)ccc3C2=O)C(=O)N1` (single isomer, unassigned) [Compound I-273, 3-(5-(1-benzylazepan-4-yl)-1-oxoisoindolin-2-yl)piperidine-2,6-dione]: the DC50 at IKZF1 is more than 30000 nM; at IKZF2 (293GT cells) it was 210 nM. Also, on IKZF2 (10 μM, 24 h, 293GT cells), the “IKZF2 % protein reduction at 10 μM, 24 h” value is on record as 20%.

`O=C1CCC(N2Cc3cc(C4CCN(C(c5ccccc5)C(F)(F)F)CC4)ccc3C2=O)C(=O)N1` (stereo not shown) [Compound I-224, 3-(1-oxo-5-(1-(2,2,2-trifluoro-1-phenylethyl)piperidin-4-yl)isoindolin-2-yl)piperidine-2,6-dione HC(O)OH salt]: the DC50 on IKZF1 and at IKZF2 (293GT cells) was more than 50000 nM throughout. Also, at IKZF2 (24 h, 10 μM, 24 h, 293GT cells), the inhibition at 10 µM was found to be 0%.

For the compound `O=C1CCC(N2Cc3cc(C4CCN(Cc5cnc6cnccn56)CC4)ccc3C2=O)C(=O)N1` (stereo not shown) [Compound I-126], the DC50 is more than 30000 nM on IKZF1 and 390 nM at IKZF2 (293GT cells). For the same compound, the inhibition at 10 µM on IKZF2 (24 h, 10 μM, 24 h, 293GT cells) came to 60%.

For `N#Cc1ccccc1CN1CCC(c2ccc3c(c2)CN(C2CCC(=O)NC2=O)C3=O)CC1` (stereo not shown) [Compound I-38, 2-((4-(2-(2,6-dioxopiperidin-3-yl)-1-oxoisoindolin-5-yl)piperidin-1-yl)methyl)benzonitrile], the results for the DC50 on IKZF1 and on IKZF2 (293GT cells) were more than 30000 nM and 41 nM, respectively. At IKZF2 (24 h, 10 μM, 24 h, 293GT cells), the inhibition at 10 µM was 55%.

Turning to `O=C1CCC(N2Cc3cc(C4CCN(Cc5cccc(OC(F)(F)F)c5)CC4)ccc3C2=O)C(=O)N1` (stereo not shown) [Compound I-54, 3-(1-oxo-5-(1-(3-(trifluoromethoxy)benzyl)piperidin-4-yl)isoindolin-2-yl)piperidine-2,6-dione], the DC50 at IKZF1 was more than 30000 nM; at IKZF2 (293GT cells) it was 20 nM. At IKZF2 (24 h, 10 μM, 24 h, 293GT cells), the inhibition at 10 µM came out at 60%.

As for `O=C1CCC(N2Cc3cc(C4CCN(Cc5ccon5)CC4)ccc3C2=O)C(=O)N1` (stereo not shown) [Compound I-246, 3-(5-(1-(isoxazol-3-ylmethyl)piperidin-4-yl)-1-oxoisoindolin-2-yl)piperidine-2,6-dione], the values for the DC50 on IKZF1 and at IKZF2 (293GT cells) were more than 50000 nM and 12 nM, respectively. The inhibition at 10 µM on IKZF2 (24 h, 10 μM, 24 h, 293GT cells) was determined as 40%.

With `O=C1CCC(N2Cc3cc(C4CCN(Cc5ccc(CO)cc5)CC4)ccc3C2=O)C(=O)N1` (stereo not shown) [Compound I-32, 3-(5-(1-(4-(hydroxymethyl)benzyl)piperidin-4-yl)-1-oxoisoindolin-2-yl)piperidine-2,6-dione], the figures for the DC50 on IKZF1 and on IKZF2 (293GT cells) were more than 30000 nM and 46 nM, respectively. Also, at IKZF2 (24 h, 10 μM, 24 h, 293GT cells), the inhibition at 10 µM stood at 80%.

Turning to `O=C1CCC(N2Cc3cc(C4CCN(Cc5ccc(OCc6ccc(F)cc6)cc5)CC4)ccc3C2=O)C(=O)N1` (stereo not shown) [Compound I-244, 3-(5-(1-(4-((4-fluorobenzyl)oxy)benzyl)piperidin-4-yl)-1-oxoisoindolin-2-yl)piperidine-2,6-dione], the DC50 is more than 30000 nM on IKZF1 and 91 nM on IKZF2 (293GT cells). For the same compound, on IKZF2 (24 h, 10 μM, 24 h, 293GT cells), the inhibition at 10 µM turned out to be 75%.

For the compound `O=C1CCC(N2Cc3cc(C4CCN(Cc5ccns5)CC4)ccc3C2=O)C(=O)N1` (stereo not shown) [Compound I-290, 3-(5-(1-(isothiazol-5-ylmethyl)piperidin-4-yl)-1-oxoisoindolin-2-yl)piperidine-2,6-dione], the DC50 on IKZF1 was more than 30000 nM; at IKZF2 (293GT cells), 490 nM. For the same compound, the inhibition at 10 µM at IKZF2 (24 h, 10 μM, 24 h, 293GT cells) stood at 60%.
